Test results taken from patent publication US20250388592A1 (REMYND N.V., priority 2022, published 2025).

The molecules below were run on M17_3TAU(P301L) cells (assay: TAU-induced cytotoxicity (LDH) in the neuroblastoma tauopathy model). Details: Homo sapiens, 168 h, inhibition of TAU-induced toxicity, 7 days retinoic acid differentiation, LDH readout.
Type: cell-based
Summary of the method: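 Stably transfected BE-M17 cells expressing human TAU-P301L, seeded in serum-free detection medium, then differentiated with 2.5 μM RA (added in equal volume) for 7 days at 37° C/5% CO2 to induce TAU aggregation. Cytotoxicity = supernatant LDH increase over total LDH; EC50 from dose-dependent inhibition curves.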

| Structure (SMILES) | EC50 [nM] |
| --- | --- |
| Clc1ccc(Cc2nsc(NC3CC4(CC(NCc5cccc6c5OCO6)C4)C3)n2)cc1 (stereo not shown) [Cpd B330, N-(benzo[d][1,3]dioxol-4-ylmethyl)-N′-(3-(4-chlorobenzyl)-1,2,4-thiadiazol-5-yl) spiro[3.3]heptane-2,6-diamine] | 8 |
| COc1ccc(CCNC2CC3(C2)CC(Nc2nc(Cc4ccc(Cl)cc4)ns2)C3)cc1OC (stereo not shown) [Cpd B335, N-(3-(4-chlorobenzyl)-1,2,4-thiadiazol-5-yl)-N′-(3,4-dimethoxyphenethyl) spiro[3.3]heptane-2,6-diamine] | 3 |
| O=C(NCC1CCC(F)(F)CC1)N1CC2(CN(Cc3ccc(F)cc3)C2)C1 [Cpd B167, N-((4,4-difluorocyclohexyl)methyl)-6-(4-fluorobenzyl)-2,6-diazaspiro[3.3]heptane-2-carboxamide] | 4.17 |
| Cc1ccc(CNC2CC3(C2)CC(Nc2nc(Cc4ccc(Cl)cc4)ns2)C3)cc1 (stereo not shown) [Cpd B321, N-(3-(4-chlorobenzyl)-1,2,4-thiadiazol-5-yl)-N′-(4-methylbenzyl) spiro[3.3]heptane-2,6-diamine] | 8.6 |
| NC(=O)c1cccc(CN2CC3(C2)CN(C(=O)Cc2ccc(F)cc2)C3)c1 [Cpd B012, 3-{6-[2-(4-Fluoro-phenyl)-acetyl]-2,6-diaza-spiro[3.3]hept-2-ylmethyl}-benzamide] | 45.2 |
| CN(Cc1ccccc1)C1CC2(CC(NC(=O)Cc3ccc(Cl)cc3)C2)C1 (stereo not shown) [Cpd B068, N-(6-(benzyl(methyl)amino)spiro[3.3]heptan-2-yl)-2-(4-chlorophenyl)acetamide] | 13.4 |
| O=C(OCC1CCC(F)(F)CC1)N1CC2(CN(Cc3ncccc3Cl)C2)C1 [Cpd B160] | 3.68 |
| COc1cc(OC)nc(CN2CC3(C2)CN(C(=O)Cc2ccc(F)cc2)C3)n1 [Cpd B064, 1-[6-(4,6-Dimethoxy-pyrimidin-2-ylmethyl)-2,6-diaza-spiro[3.3]hept-2-yl]-2-(4-fluoro-phenyl)-ethanone] | 32.8 |
| COc1cccc(CN2CC3(C2)CN(S(=O)(=O)c2ccc(OC(F)(F)F)cc2)C3)c1 [Cpd B219] | 8.34 |
| COC(=O)c1ccc(CN2CC3(C2)CN(C(=O)Cc2ccc(Cl)cc2)C3)cc1 [Cpd B035, methyl 4-((6-(2-(4-chlorophenyl)acetyl)-2,6-diazaspiro[3.3]heptan-2-yl)methyl)benzoate] | 6.06 |
| O=C(Cc1ccc(Cl)cc1)N1CC2(CN(CCc3cccc(F)c3)C2)C1 [Cpd B045, 2-(4-chlorophenyl)-1-(6-(3-fluorophenethyl)-2,6-diazaspiro[3.3]heptan-2-yl)ethanone] | 11.6 |
| Cc1nc(CN2CC3(C2)CN(C(=O)Cc2ccc(F)c(C(F)(F)F)c2)C3)cs1 [Cpd B101] | 76.6 |
| O=C(Cc1ccc(Cl)cc1)N1CC2(CN(CCC3CCCCC3)C2)C1 [Cpd B057, 2-(4-chlorophenyl)-1-(6-(2-cyclohexylethyl)-2,6-diazaspiro[3.3]heptan-2-yl)ethanone] | 1.58 |
| FC(F)(F)c1cccc(CCNC2CC3(C2)CC(Nc2nc(Cc4ccc(Cl)cc4)ns2)C3)c1 (stereo not shown) [Cpd B336, N-(3-(4-chlorobenzyl)-1,2,4-thiadiazol-5-yl)-N′-(3-(trifluoromethyl)phenethyl) spiro[3.3]heptane-2,6-diamine] | 7 |
| COc1cccc(CN2CC3(C2)CN(C(=O)Cc2ccc(Cl)cc2)C3)c1 [Cpd B031, 2-(4-chlorophenyl)-1-(6-(3-methoxybenzyl)-2,6-diazaspiro[3.3]heptan-2-yl)ethanone] | 2.01 |
| Cc1cccnc1CN1CC2(C1)CN(S(=O)(=O)Cc1cccc(C(F)(F)F)c1)C2 [Cpd B212] | 4.94 |
| O=C(Cc1ccc(F)cc1)N1CC2(CN(CCc3cccc(C(F)(F)F)c3)C2)C1 [Cpd B023, 2-(4-Fluoro-phenyl)-1-{6-[2-(3-trifluoromethyl-phenyl)-ethyl]-2,6-diaza-spiro[3.3]hept-2-yl}-ethanone] | 18.6 |
| N#Cc1ccc(CC(=O)N2CC3(CN(Cc4ccc(F)cc4)C3)C2)cc1 [Cpd B092] | 13.9 |
| Cc1cc(CNC2CC3(C2)CC(Nc2nc(Cc4ccc(Cl)cc4)ns2)C3)ccc1F (stereo not shown) [Cpd B309, N-(3-(4-chlorobenzyl)-1,2,4-thiadiazol-5-yl)-N′-(4-fluoro-3-methylbenzyl) spiro[3.3]heptane-2,6-diamine] | 12 |
| COc1cccc(CC(=O)N2CC3(CN(Cc4ccc(F)cc4)C3)C2)c1 [Cpd B425] | 854 |
| O=C(OCC1CCC(F)(F)CC1)N1CC2(CN(Cc3ccc(F)cn3)C2)C1 [Cpd B161] | 49.3 |
| Cn1cc(Cl)c(CN2CC3(C2)CN(C(=O)NC2CCC(F)(F)CC2)C3)n1 [Cpd B209] | 15.2 |
| Cc1nc(CN2CC3(C2)CN(C(=O)Cc2cccc(C(F)(F)F)c2)C3)cs1 [Cpd B100] | 261 |
| O=C(OCC12CC(F)(C1)C2)N1CC2(CN(Cc3ccc(F)cc3)C2)C1 [Cpd B129] | 97 |
| O=C(OC1CCC(F)(F)CC1)N1CC2(CN(Cc3ccc(Cl)cc3F)C2)C1 [Cpd B150] | < 0.19 |
| Cc1nc(CN2CC3(C2)CN(C(=O)Cc2ccc(F)cc2)C3)cs1 [Cpd B019, 2-(4-Fluoro-phenyl)-1-[6-(2-methyl-thiazol-4-ylmethyl)-2,6-diaza-spiro[3.3]hept-2-yl]-ethanone] | 71.8 |
| CC(C)(C(=O)c1ccccc1)N1CC2(CN(C(=O)Cc3ccc(F)cc3)C2)C1 [Cpd B029, 2-{6-[2-(4-Fluoro-phenyl)-acetyl]-2,6-diaza-spiro[3.3]hept-2-yl}-2-methyl-1-phenyl-propan-1-one] | 8.3 |
| O=C(NC1CCC(F)(F)CC1)N1CC2(CN(Cc3ccc(Cl)cn3)C2)C1 [Cpd B457] | 71.5 |

| Structure (SMILES) | EC50 [nM] |
| --- | --- |
| O=C(Cc1ccc(F)cc1)N1CC2(CN(Cc3cscn3)C2)C1 [Cpd B022, 2-(4-Fluoro-phenyl)-1-(6-thiazol-4-ylmethyl-2,6-diaza-spiro[3.3]hept-2-yl)-ethanone] | 149 |
| Cc1csc(CN2CC3(C2)CN(C(=O)NC2CCC(F)(F)CC2)C3)c1 [Cpd B210] | 14.6 |
| CN(Cc1ccccc1)C1CC2(CC(Nc3nc(Cc4ccc(F)cc4)ns3)C2)C1 (stereo not shown) [Cpd B302, N-benzyl-N′-(3-(4-fluorobenzyl)-1,2,4-thiadiazol-5-yl)-N-methyl spiro[3.3]heptane-2,6-diamine] | 0.9 |
| O=C(OC1CCC(F)(F)CC1)N1CC2(CN(Cc3ccc(F)cc3F)C2)C1 [Cpd B152] | 2.76 |
| CC(c1cccc(C(F)(F)F)c1)N1CC2(CN(C(=O)Cc3ccc(F)cc3)C2)C1 (stereo not shown) [Cpd B015, 2-(4-Fluoro-phenyl)-1-{6-[1-(3-trifluoromethyl-phenyl)-ethyl]-2,6-diaza-spiro[3.3]hept-2-yl}-ethanone] | 9.54 |
| Cc1csc(CN2CC3(C2)CN(C(=O)CC2CCC(F)(F)CC2)C3)n1 [Cpd B445] | 157 |
| O=C(Cc1cccc(Cl)c1)N1CC2(CN(Cc3ccc(F)cc3)C2)C1 [Cpd B433] | 469 |
| O=C(CC1CCC(F)(F)CC1)N1CC2(CN(Cc3ccccc3C(F)(F)F)C2)C1 [Cpd B108] | 2.58 |
| Cn1cc(CN2CC3(C2)CN(C(=O)NCC2CCC(F)(F)CC2)C3)c(Cl)n1 [Cpd B204] | 54.9 |
| Cc1nc(CN2CC3(C2)CN(C(=O)NCc2ccc(F)cc2)C3)cs1 [Cpd B418] | 1330 |
| Cc1cccnc1CN1CC2(C1)CN(C(=O)Oc1ccc(Cl)cc1)C2 [Cpd B141] | 2.57 |
| CC(c1cccc(C(F)(F)F)c1)N1CC2(CN(C(=O)Cc3ccc(Cl)cc3)C2)C1 (stereo not shown) [Cpd B037, 2-(4-chlorophenyl)-1-(6-(1-(3-(trifluoromethyl)phenyl)ethyl)-2,6-diazaspiro[3.3]heptan-2-yl)ethanone] | 5.41 |
| O=C(CC1CCC(F)(F)CC1)N1CC2(CN(Cc3ccc(C(F)(F)F)cc3)C2)C1 [Cpd B109] | 12.1 |
| COc1cc(CN2CC3(C2)CN(C(=O)Cc2ccc(Cl)cc2)C3)ccn1 [Cpd B005, 2-(4-chlorophenyl)-1-(6-((2-methoxypyridin-4-yl)methyl)-2,6-diazaspiro[3.3]heptan-2-yl)ethanone] | 162 |
| Cc1nn(C)c(CN2CC3(C2)CN(C(=O)CC2CCC(F)(F)CC2)C3)c1Cl [Cpd B122] | 3720 |
| Cn1cc(CN2CC3(C2)CN(C(=O)NCc2ccc(F)cc2)C3)cn1 [Cpd B405] | 4820 |
| Cn1cnc(CN2CC3(C2)CN(C(=O)OC2CCC(F)(F)CC2)C3)c1Cl [Cpd B446] | 150 |
| O=C(Cc1ccc(F)cc1)N1CC2(CN(Cc3ccccc3)C2)C1 [Cpd B002, 1-(6-benzyl-2,6-diazaspiro[3.3]heptan-2-yl)-2-(4-fluorophenyl)ethanone] | 9.52 |
| Cc1cccc(CN2CC3(C2)CN(C(=O)Cc2ccc(Cl)cc2)C3)n1 [Cpd B038, 2-(4-chlorophenyl)-1-(6-((6-methylpyridin-2-yl)methyl)-2,6-diazaspiro[3.3]heptan-2-yl)ethanone] | 13.9 |
| Clc1ccc(Cc2nsc(NC3CC4(CC(NCCc5cccc(Cl)c5)C4)C3)n2)cc1 (stereo not shown) [Cpd B332, N-(3-(4-chlorobenzyl)-1,2,4-thiadiazol-5-yl)-N′-(3-chlorophenethyl) spiro[3.3]heptane-2,6-diamine] | 2 |
| O=C(Cc1ccc(F)cc1)N1CC2(CN(Cc3ccccc3Cl)C2)C1 [Cpd B018, 1-[6-(2-Chloro-benzyl)-2,6-diaza-spiro[3.3]hept-2-yl]-2-(4-fluoro-phenyl)-ethanone] | 0.97 |
| Cc1cccnc1CN1CC2(C1)CN(C(=O)CC1CCCC1)C2 [Cpd B437] | 354 |
| Cc1nc(CN2CC3(C2)CN(C(=O)Nc2ccc(Cl)cc2)C3)cs1 [Cpd B452] | 94.5 |
| Cc1nc(CN2CC3(C2)CN(C(=O)OCc2ccc(Cl)cc2)C3)cs1 [Cpd B429] | 746 |
| Cc1nc(CN2CC3(C2)CN(C(=O)OC2CCC(F)(F)CC2)C3)co1 [Cpd B143] | 109 |
| COc1ccccc1CCNC1CC2(C1)CC(Nc1nc(Cc3ccc(Cl)cc3)ns1)C2 (stereo not shown) [Cpd B328, N-(3-(4-chlorobenzyl)-1,2,4-thiadiazol-5-yl)-N′-(2-methoxyphenethyl) spiro[3.3]heptane-2,6-diamine] | 2 |
| Cn1cnc(CN2CC3(C2)CN(C(=O)CC2CCC(F)(F)CC2)C3)c1 [Cpd B126] | 192 |
